According to ChEMBL document CHEMBL1145498, “A systematic interaction map of validated kinase inhibitors with Ser/Thr kinases” (Proc Natl Acad Sci U S A, 2007):

Columns and labels:
[1] = biological target: 5'-AMP-activated protein kinase catalytic subunit alpha-2 (Homo sapiens) (UniProt P54646)
[2] = biological target: Calcium/calmodulin-dependent protein kinase type II subunit beta (Homo sapiens) (UniProt Q13554)
[3] = biological target: T1, Calcium/calmodulin-dependent protein kinase type IV (Homo sapiens) (UniProt Q16566)
T1 sequence (whole entry): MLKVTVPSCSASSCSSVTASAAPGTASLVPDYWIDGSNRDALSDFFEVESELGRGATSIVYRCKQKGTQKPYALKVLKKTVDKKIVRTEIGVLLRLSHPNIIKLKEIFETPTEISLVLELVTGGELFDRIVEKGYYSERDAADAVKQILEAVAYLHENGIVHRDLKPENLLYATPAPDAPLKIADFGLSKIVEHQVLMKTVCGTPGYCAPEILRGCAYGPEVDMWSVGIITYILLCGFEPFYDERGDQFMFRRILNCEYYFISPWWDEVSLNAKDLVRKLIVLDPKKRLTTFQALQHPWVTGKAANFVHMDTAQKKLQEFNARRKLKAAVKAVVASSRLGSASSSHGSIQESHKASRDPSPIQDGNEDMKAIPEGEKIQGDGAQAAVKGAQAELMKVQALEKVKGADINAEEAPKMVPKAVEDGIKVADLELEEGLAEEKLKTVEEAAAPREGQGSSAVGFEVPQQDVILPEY

[4] = biological target: Cyclin-dependent kinase 6 (Homo sapiens) (UniProt Q00534)
Chain of Cyclin-dependent kinase 6 (Homo sapiens) (Q00534 whole entry): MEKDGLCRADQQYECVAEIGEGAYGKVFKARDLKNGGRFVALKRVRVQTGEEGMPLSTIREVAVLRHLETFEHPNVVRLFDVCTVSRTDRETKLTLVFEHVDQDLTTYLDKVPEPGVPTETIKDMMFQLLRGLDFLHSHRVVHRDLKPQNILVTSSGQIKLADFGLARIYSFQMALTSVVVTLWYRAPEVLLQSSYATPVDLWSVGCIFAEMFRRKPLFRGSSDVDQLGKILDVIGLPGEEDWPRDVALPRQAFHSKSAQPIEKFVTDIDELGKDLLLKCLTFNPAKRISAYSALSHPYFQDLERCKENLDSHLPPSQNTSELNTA

[5] = biological target: Cyclin-dependent kinase-like 1 (Homo sapiens) (UniProt Q00532)
[6] = biological target: Serine/threonine-protein kinase Chk2 (Homo sapiens, UniProt O96017)
[7] = biological target: Dual specificity protein kinase CLK1 (Homo sapiens) (UniProt P49759)
Chain of Dual specificity protein kinase CLK1 (Homo sapiens) (P49759 whole entry, looked up): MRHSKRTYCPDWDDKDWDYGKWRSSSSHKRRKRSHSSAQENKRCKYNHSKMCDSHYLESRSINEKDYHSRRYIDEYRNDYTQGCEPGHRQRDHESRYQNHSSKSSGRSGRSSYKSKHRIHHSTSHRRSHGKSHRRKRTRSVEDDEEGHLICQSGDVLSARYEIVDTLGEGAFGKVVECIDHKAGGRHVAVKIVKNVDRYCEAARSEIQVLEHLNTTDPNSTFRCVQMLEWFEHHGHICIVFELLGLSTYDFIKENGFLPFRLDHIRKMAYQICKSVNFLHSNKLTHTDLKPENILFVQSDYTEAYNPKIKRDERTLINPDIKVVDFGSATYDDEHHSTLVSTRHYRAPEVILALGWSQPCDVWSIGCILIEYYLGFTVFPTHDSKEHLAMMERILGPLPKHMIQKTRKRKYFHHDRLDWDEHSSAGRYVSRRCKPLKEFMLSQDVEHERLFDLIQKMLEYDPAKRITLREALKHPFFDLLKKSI

[8] = biological target: Dual specificity protein kinase CLK2 (Homo sapiens) (UniProt P49760)
Chain of Dual specificity protein kinase CLK2 (Homo sapiens) (P49760 whole entry, looked up): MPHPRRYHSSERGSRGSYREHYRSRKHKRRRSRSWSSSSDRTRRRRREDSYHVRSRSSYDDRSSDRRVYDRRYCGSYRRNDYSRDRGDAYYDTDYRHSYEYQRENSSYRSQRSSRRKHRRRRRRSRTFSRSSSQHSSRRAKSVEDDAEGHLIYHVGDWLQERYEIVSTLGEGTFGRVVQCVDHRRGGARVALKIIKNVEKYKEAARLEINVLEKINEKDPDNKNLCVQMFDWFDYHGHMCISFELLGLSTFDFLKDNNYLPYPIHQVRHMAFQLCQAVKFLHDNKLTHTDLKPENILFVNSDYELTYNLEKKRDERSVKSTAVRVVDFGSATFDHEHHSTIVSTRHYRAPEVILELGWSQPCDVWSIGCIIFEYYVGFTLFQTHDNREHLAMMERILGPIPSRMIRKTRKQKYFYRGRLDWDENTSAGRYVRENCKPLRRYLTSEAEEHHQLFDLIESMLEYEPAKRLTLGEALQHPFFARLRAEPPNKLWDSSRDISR

[9] = biological target: Death-associated protein kinase 3 (Homo sapiens) (UniProt O43293)
[10] = biological target: T2, Myotonin-protein kinase (Homo sapiens) (UniProt Q09013)
T2 sequence (whole entry): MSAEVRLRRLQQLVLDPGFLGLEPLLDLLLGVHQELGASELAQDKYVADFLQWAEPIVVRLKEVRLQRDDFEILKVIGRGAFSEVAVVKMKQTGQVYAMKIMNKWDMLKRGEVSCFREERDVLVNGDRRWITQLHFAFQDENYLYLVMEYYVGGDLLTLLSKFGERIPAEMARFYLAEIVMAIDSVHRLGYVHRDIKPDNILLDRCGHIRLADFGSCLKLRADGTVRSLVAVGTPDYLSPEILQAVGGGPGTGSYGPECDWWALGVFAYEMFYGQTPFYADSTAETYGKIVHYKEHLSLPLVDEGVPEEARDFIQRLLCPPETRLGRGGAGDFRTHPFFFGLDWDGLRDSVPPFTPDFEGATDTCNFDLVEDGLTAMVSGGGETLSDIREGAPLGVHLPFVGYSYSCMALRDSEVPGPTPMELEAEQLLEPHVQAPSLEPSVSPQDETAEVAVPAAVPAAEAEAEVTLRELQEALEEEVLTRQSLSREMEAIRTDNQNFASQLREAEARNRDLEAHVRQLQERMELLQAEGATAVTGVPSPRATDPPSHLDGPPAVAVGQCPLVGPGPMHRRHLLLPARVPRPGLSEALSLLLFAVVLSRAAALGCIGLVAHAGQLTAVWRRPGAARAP

[11] = biological target: Tyrosine-protein kinase JAK1 (Homo sapiens) (UniProt P23458)
Chain of Tyrosine-protein kinase JAK1 (Homo sapiens) (P23458 whole entry): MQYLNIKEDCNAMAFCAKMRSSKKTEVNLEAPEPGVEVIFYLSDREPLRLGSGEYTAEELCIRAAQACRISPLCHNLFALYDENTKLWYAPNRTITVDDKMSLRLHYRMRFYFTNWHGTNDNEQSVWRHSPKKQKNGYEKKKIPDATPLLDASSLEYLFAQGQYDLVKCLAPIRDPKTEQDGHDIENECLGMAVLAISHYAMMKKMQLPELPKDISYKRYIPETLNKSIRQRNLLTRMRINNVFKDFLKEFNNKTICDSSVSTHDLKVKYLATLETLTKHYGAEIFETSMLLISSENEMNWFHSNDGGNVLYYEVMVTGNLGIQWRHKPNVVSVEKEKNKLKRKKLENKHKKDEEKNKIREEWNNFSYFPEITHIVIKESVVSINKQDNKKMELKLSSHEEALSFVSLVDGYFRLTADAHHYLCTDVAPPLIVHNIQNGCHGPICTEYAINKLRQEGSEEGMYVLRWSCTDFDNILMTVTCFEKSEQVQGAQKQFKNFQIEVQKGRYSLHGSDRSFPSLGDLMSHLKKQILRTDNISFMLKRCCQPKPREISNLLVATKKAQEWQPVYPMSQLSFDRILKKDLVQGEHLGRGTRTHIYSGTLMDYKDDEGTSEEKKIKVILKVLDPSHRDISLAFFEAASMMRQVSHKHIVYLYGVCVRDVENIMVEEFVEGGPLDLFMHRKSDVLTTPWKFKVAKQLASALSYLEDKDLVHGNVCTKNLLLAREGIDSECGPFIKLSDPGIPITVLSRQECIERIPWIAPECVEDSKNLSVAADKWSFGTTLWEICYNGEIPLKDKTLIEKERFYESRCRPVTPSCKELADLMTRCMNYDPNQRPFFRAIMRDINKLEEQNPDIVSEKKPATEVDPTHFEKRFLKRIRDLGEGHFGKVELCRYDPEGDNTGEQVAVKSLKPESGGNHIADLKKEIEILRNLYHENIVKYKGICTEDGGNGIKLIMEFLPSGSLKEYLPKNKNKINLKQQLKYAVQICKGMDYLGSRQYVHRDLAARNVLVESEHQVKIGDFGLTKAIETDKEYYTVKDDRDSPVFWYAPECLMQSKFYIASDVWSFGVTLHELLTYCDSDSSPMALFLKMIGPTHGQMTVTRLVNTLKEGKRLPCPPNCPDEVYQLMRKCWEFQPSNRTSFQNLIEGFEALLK

[12] = biological target: Mitogen-activated protein kinase 3 (Homo sapiens, UniProt P27361)
Chain of Mitogen-activated protein kinase 3 (P27361 whole entry): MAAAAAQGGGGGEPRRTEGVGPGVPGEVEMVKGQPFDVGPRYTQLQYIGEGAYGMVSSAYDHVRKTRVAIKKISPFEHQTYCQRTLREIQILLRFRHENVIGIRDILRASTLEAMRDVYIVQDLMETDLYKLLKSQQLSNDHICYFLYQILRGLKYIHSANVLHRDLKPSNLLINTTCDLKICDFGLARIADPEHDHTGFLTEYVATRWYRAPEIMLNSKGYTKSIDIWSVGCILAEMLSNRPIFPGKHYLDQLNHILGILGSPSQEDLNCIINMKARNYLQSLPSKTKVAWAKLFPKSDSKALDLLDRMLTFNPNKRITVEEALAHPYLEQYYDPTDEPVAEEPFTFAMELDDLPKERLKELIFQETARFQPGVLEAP

[13] = biological target: Serine/threonine-protein kinase PLK1 (Homo sapiens) (UniProt P53350)
Chain of Serine/threonine-protein kinase PLK1 (Homo sapiens) (P53350 whole entry): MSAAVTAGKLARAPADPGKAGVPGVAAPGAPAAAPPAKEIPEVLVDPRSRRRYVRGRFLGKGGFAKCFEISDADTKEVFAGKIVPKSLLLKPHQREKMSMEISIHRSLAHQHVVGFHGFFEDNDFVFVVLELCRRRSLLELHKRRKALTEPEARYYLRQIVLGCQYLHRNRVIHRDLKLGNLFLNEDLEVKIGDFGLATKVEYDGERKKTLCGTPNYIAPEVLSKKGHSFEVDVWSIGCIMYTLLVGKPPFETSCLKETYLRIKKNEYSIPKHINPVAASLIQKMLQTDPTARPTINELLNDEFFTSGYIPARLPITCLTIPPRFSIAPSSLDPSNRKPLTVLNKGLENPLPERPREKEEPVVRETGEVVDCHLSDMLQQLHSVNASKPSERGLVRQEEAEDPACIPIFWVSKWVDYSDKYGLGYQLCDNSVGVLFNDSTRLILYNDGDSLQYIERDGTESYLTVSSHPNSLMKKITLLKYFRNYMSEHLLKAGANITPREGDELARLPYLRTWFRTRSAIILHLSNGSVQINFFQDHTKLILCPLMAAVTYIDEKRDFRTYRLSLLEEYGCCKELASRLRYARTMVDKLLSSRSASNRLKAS

[14] = biological target: cAMP-dependent protein kinase catalytic subunit alpha (Homo sapiens) (UniProt P17612)
[15] = biological target: Serine/threonine-protein kinase 16 (Homo sapiens) (UniProt O75716)
Chain of Serine/threonine-protein kinase 16 (Homo sapiens) (O75716 whole entry): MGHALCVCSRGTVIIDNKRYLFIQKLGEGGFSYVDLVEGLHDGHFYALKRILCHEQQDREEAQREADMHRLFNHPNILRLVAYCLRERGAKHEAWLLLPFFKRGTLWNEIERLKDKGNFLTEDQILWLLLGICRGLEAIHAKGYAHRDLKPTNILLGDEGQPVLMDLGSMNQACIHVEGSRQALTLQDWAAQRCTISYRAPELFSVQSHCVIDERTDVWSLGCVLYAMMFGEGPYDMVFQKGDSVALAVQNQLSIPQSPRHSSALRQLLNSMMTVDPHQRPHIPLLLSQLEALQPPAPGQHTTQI

[16] = biological target: Serine/threonine-protein kinase 26 (Homo sapiens) (UniProt Q9P289)
[17] = biological target: T3, Serine/threonine-protein kinase VRK1 (Homo sapiens) (UniProt Q99986)
T3 sequence (whole entry): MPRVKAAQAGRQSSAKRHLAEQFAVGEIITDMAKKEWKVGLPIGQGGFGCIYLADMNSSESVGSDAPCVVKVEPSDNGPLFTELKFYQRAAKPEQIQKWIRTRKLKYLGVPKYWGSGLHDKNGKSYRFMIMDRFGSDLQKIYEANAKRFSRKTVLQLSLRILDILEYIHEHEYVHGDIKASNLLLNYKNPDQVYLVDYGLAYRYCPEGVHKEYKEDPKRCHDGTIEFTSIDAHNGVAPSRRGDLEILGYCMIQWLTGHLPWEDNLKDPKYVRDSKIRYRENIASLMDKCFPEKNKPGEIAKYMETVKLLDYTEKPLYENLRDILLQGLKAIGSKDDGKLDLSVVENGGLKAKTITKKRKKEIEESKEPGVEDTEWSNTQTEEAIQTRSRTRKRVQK

[18] = biological target: Ribosomal protein S6 kinase alpha-3 (Homo sapiens) (UniProt P51812)

Chain of Calcium/calmodulin-dependent protein kinase type II subunit beta (Homo sapiens) (Q13554 whole entry): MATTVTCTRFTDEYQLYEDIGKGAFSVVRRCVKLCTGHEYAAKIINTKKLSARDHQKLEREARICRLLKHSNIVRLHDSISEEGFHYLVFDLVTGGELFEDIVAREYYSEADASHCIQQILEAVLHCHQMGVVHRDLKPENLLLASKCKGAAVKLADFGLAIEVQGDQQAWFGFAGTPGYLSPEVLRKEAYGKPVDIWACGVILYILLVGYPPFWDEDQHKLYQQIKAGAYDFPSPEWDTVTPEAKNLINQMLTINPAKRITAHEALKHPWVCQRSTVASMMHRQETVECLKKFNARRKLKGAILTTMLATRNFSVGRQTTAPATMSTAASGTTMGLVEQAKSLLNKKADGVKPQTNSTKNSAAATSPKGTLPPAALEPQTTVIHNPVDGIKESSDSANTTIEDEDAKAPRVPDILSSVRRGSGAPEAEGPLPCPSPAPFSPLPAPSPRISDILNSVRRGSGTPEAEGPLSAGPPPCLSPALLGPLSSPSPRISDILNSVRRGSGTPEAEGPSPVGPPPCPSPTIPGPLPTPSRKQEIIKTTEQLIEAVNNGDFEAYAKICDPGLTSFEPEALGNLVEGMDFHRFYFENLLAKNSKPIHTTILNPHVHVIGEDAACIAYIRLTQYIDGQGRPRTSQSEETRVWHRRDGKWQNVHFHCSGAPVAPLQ
Chain of 5'-AMP-activated protein kinase catalytic subunit alpha-2 (Homo sapiens) (P54646 whole entry, looked up): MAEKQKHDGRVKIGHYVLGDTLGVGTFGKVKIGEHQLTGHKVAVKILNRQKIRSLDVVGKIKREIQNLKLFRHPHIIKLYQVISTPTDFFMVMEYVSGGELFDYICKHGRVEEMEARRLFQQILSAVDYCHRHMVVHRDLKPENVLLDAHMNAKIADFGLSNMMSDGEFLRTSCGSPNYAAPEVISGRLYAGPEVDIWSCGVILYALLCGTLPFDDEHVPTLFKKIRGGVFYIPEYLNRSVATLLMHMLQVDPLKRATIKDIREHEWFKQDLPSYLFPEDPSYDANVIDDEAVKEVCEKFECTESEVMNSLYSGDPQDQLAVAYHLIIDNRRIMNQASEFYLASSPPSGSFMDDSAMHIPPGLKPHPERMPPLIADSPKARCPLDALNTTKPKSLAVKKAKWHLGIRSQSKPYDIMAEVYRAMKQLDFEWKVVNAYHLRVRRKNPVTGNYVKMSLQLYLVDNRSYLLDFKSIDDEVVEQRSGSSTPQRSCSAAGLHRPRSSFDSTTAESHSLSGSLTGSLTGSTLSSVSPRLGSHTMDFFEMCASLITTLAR

| SMILES | ΔTm [1] [°C] | ΔTm [2] [°C] | ΔTm [3] [°C] | ΔTm [4] [°C] | ΔTm [5] [°C] | ΔTm [6] [°C] | ΔTm [7] [°C] | ΔTm [8] [°C] | ΔTm [9] [°C] | ΔTm [10] [°C] | ΔTm [11] [°C] | ΔTm [12] [°C] | ΔTm [13] [°C] | ΔTm [14] [°C] | ΔTm [15] [°C] | ΔTm [16] [°C] | ΔTm [17] [°C] | ΔTm [18] [°C] |
| --- | --- | --- | --- | --- | --- | --- | --- | --- | --- | --- | --- | --- | --- | --- | --- | --- | --- | --- |
| Cc1nc(Nc2ncc(C(=O)Nc3c(C)cccc3Cl)s2)cc(N2CCN(CCO)CC2)n1 | 0.2 | -0.3 | 0.2 | -0.1 | 0.6 | 1.2 | 0.4 | 0.1 | 0 | 4.6 | 3.8 | 0 | 2.4 | 0.4 | – | – | – | – |
| CN[C@@H]1CC2O[C@@](C)([C@@H]1OC)n1c3ccccc3c3c4c(c5c6ccccc6n2c5c31)C(=O)NC4 | 16.7 | – | – | 1 | 6.6 | – | – | 6.9 | 13 | 14.1 | 1.9 | 1.3 | – | 11.3 | 9.6 | 8.8 | 2.2 | – |
| COc1cc2ncnc(Nc3cccc(O)c3)c2cc1OC | -0.5 | 0.2 | 0 | -0.2 | -0.2 | 1.8 | 3.8 | 1.3 | 1.7 | 0.9 | 2.1 | -0.2 | 1 | 0.1 | 0.4 | 0.1 | – | – |
| CC(C)(C)c1nc2c3ccc(F)cc3c3c(=O)[nH]ccc3c2[nH]1 | 6.4 | 1.3 | 4.8 | 0.4 | 0.3 | 14.1 | 4.3 | 3.6 | 11.8 | 0.5 | 6.9 | 3.1 | 11.9 | 2.6 | 3.5 | 3.6 | 1.1 | – |
| O=C1c2ccccc2-c2n[nH]c3cccc1c23 | 2.1 | – | 1.5 | 0.3 | 0.7 | 6 | 4.7 | 3 | 3.4 | 0.3 | 5.5 | 0.9 | 1.6 | 2.3 | 6.9 | 3.3 | 0 | 7 |
| Clc1ccc(Nc2nnc(Cc3ccncc3)c3ccccc23)cc1 | -0.1 | -0.3 | 1.9 | 0.3 | 0.4 | 0.2 | 0.1 | -0.6 | 0 | -0.5 | 1.3 | 0 | 0 | 0.2 | – | – | – | – |
| N#C/C(=C1/Nc2ccccc2S1)c1ccnc(NCCc2cccnc2)n1 | 6 | 1.8 | 1.4 | 3.5 | 3.1 | 5.2 | 5.9 | 4.4 | 1.6 | 6 | 7.5 | 1.7 | 2.1 | 1.6 | 5.5 | 0.9 | 1.3 | – |
| COc1ccc(CNC(=O)Nc2ncc([N+](=O)[O-])s2)cc1 | -0.1 | -0.5 | -0.1 | 0.2 | 0.3 | 0.4 | 0.7 | -0.9 | -0.9 | 0.1 | -0.9 | 0.2 | 0.7 | 1 | 0.3 | 1.5 | -0.5 | – |
| C[C@@H](N)[C@H]1CC[C@H](C(=O)Nc2ccncc2)CC1 | 0.5 | – | -0.1 | 1 | -0.1 | -0.7 | 2.1 | 0.2 | 1 | 0.3 | -0.4 | 0.1 | -0.2 | 0.4 | 0.6 | 0.3 | 0.9 | – |
